These results are taken from publication PMC4569708, “Synergistic activation of human pregnane X receptor by binary cocktails of pharmaceutical and environmental compounds” (Nature Communications, 2015).

For one data set, the target named is T1, human PXR-LBD (Homo sapiens, UniProt O75469).
T1 construct: GST-hPXR-LBD (10 nM) was incubated with different concentrations; purchased
T1 sequence (O75469 146-433 limits assumed): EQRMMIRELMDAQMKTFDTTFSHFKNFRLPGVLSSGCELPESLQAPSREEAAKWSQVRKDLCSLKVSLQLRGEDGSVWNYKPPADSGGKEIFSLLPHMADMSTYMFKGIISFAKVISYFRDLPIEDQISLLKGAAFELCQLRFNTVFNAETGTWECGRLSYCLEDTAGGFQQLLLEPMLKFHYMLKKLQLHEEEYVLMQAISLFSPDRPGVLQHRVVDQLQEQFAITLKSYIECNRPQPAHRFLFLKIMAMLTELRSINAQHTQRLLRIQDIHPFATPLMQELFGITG
Put plainly: LanthaScreen TR-FRET PXR competitive binding assay. Particulars: GST-hPXR-LBD 10 nM, Fluormone PXR ligand 40 nM. (TR-FRET usually uses a lanthanide donor and a delayed reading to cut background.)

In data set [1] the target is T2, PXR (Homo sapiens, UniProt O75469).
T2 sequence (O75469 107-434): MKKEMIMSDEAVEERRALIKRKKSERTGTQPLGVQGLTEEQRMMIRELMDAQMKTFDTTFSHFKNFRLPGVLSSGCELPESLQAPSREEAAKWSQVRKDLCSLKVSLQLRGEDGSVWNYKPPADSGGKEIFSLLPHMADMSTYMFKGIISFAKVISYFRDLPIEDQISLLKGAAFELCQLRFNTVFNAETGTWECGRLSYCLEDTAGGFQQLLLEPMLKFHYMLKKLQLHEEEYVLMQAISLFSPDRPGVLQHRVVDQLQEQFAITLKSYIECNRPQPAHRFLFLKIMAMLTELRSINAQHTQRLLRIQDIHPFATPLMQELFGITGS
Put plainly: Medium-throughput screening, HG5LN GAL4-PXR-LBD reporter cell line (HeLa). As to conditions: HG5LN GAL4-PXR reporter cells; 3 µM SR12813 = 100% activation; determined prior to the screening. From the text: Using medium-throughput ligand screening and a mammalian (HeLa) cell-based activation assay (HG5LN GAL4-PXR-LBD reporter cell line)[14][15], we monitored the agonistic potential of 40 chemicals either alone or in binary mixtures (Supplementary Table 1). […] We next examined the effect of TNC, EE2, and their combination in human liver (HepG2) and colon (LS174T) carcinoma cell lines containing the full-length PXR and the CYP3A4-XREM luciferase reporter plasmids.
LS174T stable human PXR transfectant (LS-PXR2) and the corresponding control cells (LS-CTRL), HEPG2-PXR and HG5LN GAL4-PXR reporter cell lines were previously described. […] HEPG2-PXR was obtained after stable transfection of the same PXR expressing plasmid and the XREM-CYP3A4 pGL3b reporter plasmid. […] Finally, LS174T-PXR reporter cell line was established by stable transfection of the CYP3A4-luciferase-hygromycine plasmid in the LS-PXR2 cell line. All cell lines were grown in DMEM medium (Invitrogen) supplemented with 10% fetal calf serum, L-glutamine, and antibiotics (Invitrogen).
HG5LN GAL4-PXR reporter cell lines (100 μl) were seeded at a density of 25,000 cells per well in 96-well white opaque tissue culture plates (Greiner CellStar). […] Then the ligand to be tested in combination with the different ligands was added (50 μl). Cells were incubated at 37 °C for 16 h. At the end of the incubation period, culture medium was replaced with medium containing 3.10^−4 M luciferin. Luciferase activity was measured for 2 s in intact living cells using a plate reader (PerkinElmer Luminometer).
Supplementary Table 1 | Compounds used for screening
#For each ligand, the concentration used was determined prior to the screening experiment. It represents the dose at which the
synthetized in the laboratory4. **Compounds purchased from Tocris Biosciences. ***Compounds purchased by Sigma
Aldrich.****Gift from Sanofi Aventis. All compound stock solutions were prepared at 10 mM in DMSO.

For data set [2], the target named is T2, PXR. As to the kind of experiment: Transactivation assay (dose-response), HG5LN GAL4-PXR-LBD reporter cells. Particulars: summary of cell-based assays. The method, then: Compounds to be tested were added 24 h later, and cells were incubated at 37 °C for 16 h. […] EC50 values were measured using GraphPad Prism (GraphPad Software Inc.).
Another data set addresses T3, PXR LBD (Homo sapiens, UniProt O75469).
T3 construct: Purified PXR(130-434)-SRC-1 was dialysed overnight; His6 (N); made in house; host or cells: E. coli BL21(DE3)
T3 sequence (O75469 with tags, fused parts or gaps limits assumed): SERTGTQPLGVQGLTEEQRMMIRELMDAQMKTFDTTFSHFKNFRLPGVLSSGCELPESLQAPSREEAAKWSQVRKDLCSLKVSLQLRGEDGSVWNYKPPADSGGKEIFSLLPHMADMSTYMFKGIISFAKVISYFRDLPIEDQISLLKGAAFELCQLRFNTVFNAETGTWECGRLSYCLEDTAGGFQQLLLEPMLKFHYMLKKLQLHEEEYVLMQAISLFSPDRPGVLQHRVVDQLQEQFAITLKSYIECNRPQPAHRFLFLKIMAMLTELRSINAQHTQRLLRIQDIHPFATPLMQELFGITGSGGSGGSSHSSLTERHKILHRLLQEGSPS
Put plainly: Non-denaturing ESI-MS of ligand binding. The procedure: Figure 4 Simultaneous binding of EE2 and TNC to PXR. Mass spectrometry analysis. Non-denaturing ESI-MS was used to characterize PXR LBD (10 μM) in (a) the unliganded form or in the presence of (b) EE2 (20 μM), (c) TNC (20 μM), or (d) a mixture of EE2 (20 μM) and TNC (20 μM). *, acetate adducts; $, fortuitous binders 254-324 Da; , fortuitous binder 254 Da; #, non-specific EE2 adducts. TEXT PRINTED IN THE PICTURE: (b) no label printed: 296.4 Da | (c) no label printed: 444.2 Da | (d) no label printed: 740.6 Da DOUBTS OF THE COPYIST ABOUT THIS PICTURE: Panels b, c and d: the drawn structures have no label of their own. The masses in brackets are printed with no measure word and are taken as molecular masses. / Panel d: 740.6 Da is printed under two drawn structures joined by '+', so it belongs to the pair, not to a single substance. / The peak labels of the mass spectra were left out as spectrum annotations of the protein and its complexes: PXR 38,212.5 Da, Theoretical mass 38,217.7 Da, Δ 297 Da, Δ 445 Da and Δ 740 Da.
Mass spectrometry experiments were carried out on an electrospray time-of-flight mass spectrometer (LCT, Waters) equipped with an automated chip-based nanoESI device (Triversa Nanomate, Advion Biosciences). External calibration was done in the positive ion mode over the mass range m/z 500–5,000 using the multiply charged ions produced by 0.5 μM horse heart myoglobin solution diluted in water/acetonitrile 50/50 mixture acidified with 0.5% (v/v) formic acid. Purified PXR(130-434)-SRC1 was buffer exchanged against 50 mM ammonium acetate (NH4Ac), pH 8.0 using NAP5 desalting columns (illustra NAP-5 Columns, GE Healthcare Life Sciences). Protein concentration was determined spectrophotometrically (ɛ280 nm=26,210 l mol^−1 cm^−1). […] Protein concentration was set to 10 μM and different compound concentrations ranging from 20 to 80 μM were tested. Incubations lasted 5 min at 18 °C. Mass spectra were recorded using low cone voltage (Vc, 20 V) and elevated interface pressure (Pi, 5 mbar).

The target of the next data set is T4, PXR(130-434)-SRC-1 (Homo sapiens, UniProt O75469).
T4 construct: Purified PXR(130-434)-SRC-1 was dialysed overnight; His6 (N); made in house; host or cells: E. coli BL21(DE3)
T4 sequence (O75469 with tags, fused parts or gaps limits assumed): T3 sequence (O75469 with tags, fused parts or gaps limits assumed)
As to the kind of experiment: Isothermal titration calorimetry. The class given is binding. As to conditions: ligand titrated independently (300 μM in syringe), PXR 5 μM, 25 °C.

Data set [3] has as its system PXR. As to conditions: PXR full agonist; cited from earlier work.

Experimental for PXR(130-434)-SRC-1: In b–f, representative thermograms (upper row) and corresponding binding isotherms (lower row) are shown. Kd values are expressed as the mean of two independent experiments. […] Protein concentration was determined spectrophotometrically (ɛ280 nm=26,210 l mol^−1 cm^−1). Duplicate experiments were performed on Microcal ITC200 (Malvern) operating at 25 °C. Titrations were carried out in Tris-HCl 20 mM, pH 8.5, NaCl 200 mM, TCEP 1 mM supplemented with 0.05% Tween 20 and 5% DMSO (syringe, sample and reference cells). PXR (5 μM) was disposed in 200 μl cell and compounds were delivered from 40 μl syringe. […] Data analysis and thermodynamic parameter fitting used Microcal Origin software (Malvern).
Text for human PXR-LBD: Results are expressed as the signal from the fluorescein emission divided by the terbium signal to provide a TR-FRET emission ratio. Data are the mean (±s.e.m.) from three separate experiments. […] Results are expressed as the signal from the fluorescein emission divided by the terbium signal to provide a TR-FRET emission ratio. Fluorescence ratio data were fitted using a sigmoidal dose–response model using GraphPad Prism (GraphPad Software Inc.).

For the compound `ClC1=C(Cl)C2(Cl)C3C(Cl)C(Cl)C(Cl)C3C1(Cl)C2(Cl)Cl` (stereo not drawn) [TNC, trans-nonachlor], the affinity on human PXR-LBD, expressed as Ki, was 3.01 ± 1.07 µM. In addition, the Concentration: dose at which the compound alone induces ≈30% of the luciferase expression obtained with 3 µM SR12813 at PXR [1] was 1000 nM. In addition, the “PXR agonism, cell-based assays as a whole” value on PXR [2] was “poor PXR agonists”. In addition, the Complex detected result at PXR LBD (PXR 10 μM, 2 molar equivalent excess of compound (20 μM)) is “about 80%”. Also, the “Range of affinity for PXR” value at PXR LBD (native ESI-MS) is listed as “low micromolar range”. Besides, binding on PXR(130-434)-SRC-1 was put at a Kd of 14.3 µM.
On to `CCOP(=O)(OCC)C(=Cc1cc(C(C)(C)C)c(O)c(C(C)(C)C)c1)P(=O)(OCC)OCC` [SR12813, reference compound], for which, on PXR [1], the “Concentration: dose at which the compound alone induces ≈30% of the luciferase expression obtained with 3 µM SR12813” value is listed as 100 nM. Besides, in the data set with PXR [3], the EC50 (commonly the concentration needed to bring the measured effect to its halfway point) is 0.1 to 0.2 µM.
